Consider 6 molecules from patent publication US5602168A, “1-(N'-(arylalkylaminoalkyl)) aminoisoindoles; dopamine receptor subtype specific ligands” (Neurogen Corporation, priority 1995, dated 1997).

One data set has as its target D2 receptor (Chlorocebus aethiops, UniProt P52702). As to the kind of experiment: D2 receptor binding activity ([3H]-YM 09151-2 displacement). The following applies: COS cell pellets with recombinant D2; 0.5 nM 3H-YM 09151-2; nonspecific 1 mM spiperone. More on the design: species or system African Green monkey. The procedure:
(§1) Pellets of COS cells containing recombinantly produced D2 or D3 receptors from African Green monkey were used for the assays. The sample is homogenized in 100 volumes (w/vol) of 0.05M Tris HCl buffer at 4° C. and pH 7.4. The sample is then centrifuged at 30,000×g and resuspended and rehomogenized. The sample is then centrifuged as described and the final tissue sample is frozen until use. The tissue is resuspended 1:20 (wt/vol) in 0.05M Tris HCl buffer containing 100 mM NaCl.
(§2) Incubations are carried out at […] and contain 0.4 ml of tissue sample, 0.5 nM ^3 H-YM 09151-2 and the compound of interest in a total incubation of 1.0 ml. Nonspecific binding is defined as that binding found in the presence of 1 mM spiperone; without further additions, nonspecific binding is less than 20% of total binding. The binding characteristics of examples of this patent for the D2 and D3 receptor subtypes are shown in Table 2 for Rat Striatal Homogenates.

Another data set addresses T1, D3 receptor (Chlorocebus aethiops, UniProt P52703).
T1 construct: expressed in transfected cells; host or cells: COS cells (membrane homogenate)
As to the kind of experiment: D3 receptor binding activity ([3H]-YM 09151-2 displacement). More on the design: species or system African Green monkey. To be noted: COS cell pellets with recombinant D3; 0.5 nM 3H-YM 09151-2; nonspecific 1 mM spiperone. The procedure:
as §1, §2

The target in data set [1] is T2, human dopamine D4 receptor (Homo sapiens, UniProt P21917).
T2 construct: expressed in transfected cells
T2 sequence (P21917 1-419): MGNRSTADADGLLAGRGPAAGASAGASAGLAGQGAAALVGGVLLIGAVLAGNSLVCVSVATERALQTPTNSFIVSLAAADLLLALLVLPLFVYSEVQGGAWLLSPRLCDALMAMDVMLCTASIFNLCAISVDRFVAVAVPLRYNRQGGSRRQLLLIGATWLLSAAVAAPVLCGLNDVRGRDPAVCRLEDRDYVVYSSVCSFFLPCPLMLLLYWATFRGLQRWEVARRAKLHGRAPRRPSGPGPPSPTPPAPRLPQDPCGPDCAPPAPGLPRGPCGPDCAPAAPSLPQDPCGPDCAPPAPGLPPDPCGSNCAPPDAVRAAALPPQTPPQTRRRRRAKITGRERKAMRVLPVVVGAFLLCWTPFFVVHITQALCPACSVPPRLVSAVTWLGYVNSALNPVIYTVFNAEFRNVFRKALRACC
As to the kind of experiment: D4 receptor binding activity ([3H]YM-09151-2 displacement). The following applies: human D4 clonal cell lines; 0.1 nM [3H]YM-09151-2; 60 minutes at 25° C.; pH 7.4. How it is done: Clonal cell lines expressing the human dopamine D4 receptor subtype were harvested in PBS and the cells centrifuged and the pellets stored at -80° C. until used in the binding assay. The pellets were resuspended and the cells lysed at 4° C. in 50 mM Tris pH 7.4 buffer containing 120 mM NaCl, 1 mM EDTA and 5 mM MgCl2. The homogenate is centrifuged at 48000×g for 10 minutes at 4° C. The resulting pellet is resuspended in fresh buffer and centrifuged again. After resuspension of the pellet in fresh buffer a […] aliquot is removed for protein determination. The remaining homogenate is centrifuged as above, the supernatant removed and the pellet stored at 4° C. until needed at which time it is resuspended to a final concentration of […] with 50 mM Tris buffer (pH 7.4) and 120 mM NaCl just prior to use. Incubations were carried out for 60 minutes at 25° C. in the presence of 0.1 nM [^3 H]YM-09151-2. The incubation was terminated by rapid filtration through Whatman GF/C filters and rinsed with 2×4 ml washes of chilled 50 mM Tris (pH 7.4) and 120 mM NaCl. Non-specific binding was determined with 1 mM spiperone and radioactivity determined by counting in an LKB beta counter. Binding parameters were determined by non-linear least squares regression analysis, from which the inhibition constant Ki could be calculated for each test compound. The binding characteristics of some examples of this invention are shown in Table 3 for the dopamine D4 binding assay.

The conditions of data set [2]: cited from earlier work.
The next data set relates to D1 dopamine receptor. To be noted: background statement; cited from earlier work.
The next data set deals with D2 receptors. The following applies: background statement; cited from earlier work.

Where two headings read alike, the source gives them in different places. Some results are limits rather than exact numbers.

T1 sequence (P52703 whole entry): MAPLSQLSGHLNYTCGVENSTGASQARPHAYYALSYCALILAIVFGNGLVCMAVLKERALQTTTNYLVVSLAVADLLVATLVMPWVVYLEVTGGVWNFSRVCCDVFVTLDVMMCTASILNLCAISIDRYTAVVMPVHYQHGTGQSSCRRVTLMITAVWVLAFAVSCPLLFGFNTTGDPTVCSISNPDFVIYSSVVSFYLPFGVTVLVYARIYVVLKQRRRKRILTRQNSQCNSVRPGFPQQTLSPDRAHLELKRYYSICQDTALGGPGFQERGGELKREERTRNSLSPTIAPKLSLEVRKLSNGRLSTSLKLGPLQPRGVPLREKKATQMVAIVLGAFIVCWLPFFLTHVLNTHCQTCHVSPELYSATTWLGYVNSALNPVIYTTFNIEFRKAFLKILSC
Chain of D2 receptor (P52702 whole entry): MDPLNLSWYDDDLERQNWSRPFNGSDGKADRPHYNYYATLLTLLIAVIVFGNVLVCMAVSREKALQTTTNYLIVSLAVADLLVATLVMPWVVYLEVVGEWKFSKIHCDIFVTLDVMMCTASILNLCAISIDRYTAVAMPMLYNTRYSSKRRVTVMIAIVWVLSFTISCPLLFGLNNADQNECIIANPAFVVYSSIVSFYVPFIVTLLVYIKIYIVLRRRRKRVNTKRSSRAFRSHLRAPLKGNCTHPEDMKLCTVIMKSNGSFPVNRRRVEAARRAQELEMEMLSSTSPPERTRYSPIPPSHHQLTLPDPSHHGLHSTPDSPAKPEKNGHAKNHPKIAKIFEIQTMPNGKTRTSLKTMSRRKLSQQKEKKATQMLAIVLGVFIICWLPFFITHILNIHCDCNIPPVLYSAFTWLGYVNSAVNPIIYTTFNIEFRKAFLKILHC

Turning to `c1cnc(N2CCN(CCNC3=NCc4ccccc43)CC2)nc1` [Compound 1], the results for the Ki (at D2 receptor; on D3 receptor; in data set [1]) were 2380 nM, above 100000 nM and 12 nM, respectively.

Take `c1cnc(N2CCN(CCCNC3=NCc4ccccc43)CC2)nc1` [Compound 2]: the Ki – broadly, the equilibrium dissociation constant of an inhibitor or competing ligand from its target – was 1420 nM at D2 receptor, above 100000 nM at D3 receptor and 70 nM in data set [1].

For the molecule `CN(CCCc1ccccc1)CCNC1=NCc2ccccc21` [Compound 3, 1-(N-[2-{N'-(3-phenylpropyl)-N'-methyl}aminoethyl])aminoisoindole dioxolate], the Ki is 1940 nM on D2 receptor, above 100000 nM on D3 receptor and 100 nM in data set [1].

Take `CN1CCN(C2=Nc3cc(Cl)ccc3Nc3ccccc32)CC1` [clozapine]: in data set [2] (versus classical neuroleptics, background statement), the “incidence of extrapyramidal side effects (EPS)” value is on record as “lesser incidence of extrapyramidal side effects (EPS) than classical neuroleptics”.

For `O=C(CCCN1CCC(O)(c2ccc(Cl)cc2)CC1)c1ccc(F)cc1` [haloperidol], the “binding at D1 dopamine receptor” value with D1 dopamine receptor is “binds relatively weakly”. In the data set on D2 receptors, the “binding affinity at D2 receptors” value is given as “in the subnanomolar range”.

Turning to `CCN1CCCC1CNC(=O)c1cc(S(N)(=O)=O)ccc1OC` (stereo not shown) [sulpiride], in data set [2] (in vivo), the “incidence of extrapyramidal side effects (EPS)” value is on record as “lesser incidence of extrapyramidal side effects (EPS) than classical neuroleptics”.
